# Source: PMC10300102, “In vivo inhibition of nuclear ACE2 translocation protects against SARS-CoV-2 replication and lung damage through epigenetic imprinting” (Nature Communications, 2023)
# “And” between values parts separate entries of the source, which are not always exact repeats. Equal values may be shown once. Read-outs that look alike come from different tables or passages of the source. Where a SMILES comes first, the peptide text is derived from it. The star is where a group is joined. Myristoyl = CCCCCCCCCCCCCC(=O)*
# What was measured:
# [1] = test system: SARS-CoV-2; design: species or system golden Syrian hamsters; conditions: hamster, in vivo
# [2] = test system: perforin-positive and CD3+ cells; format: in vivo, golden Syrian hamsters; conditions: hamster lungs 2 dpi; for %CD3+ / %Perforin+: individual animals, n=5
# [3] = Mouse tolerance studies; format: in vivo, C57BL/6 J mice; design: Mouse organ weight - i.v. treatment, Brain / Mouse organ weight - i.v. treatment, Heart / Mouse organ weight - i.v. treatment, Kidney / Mouse organ weight - i.v. treatment, Liver / Mouse organ weight - i.v. treatment, Lungs / Mouse organ weight - i.v. treatment, Spleen: unit not given here
# Method: For NACE2i intraperitoneal (i.p.) studies, female C57BL/6 J mice (6-8 weeks, 3 per group) were treated with a single bolus dose of NACE2i at 3, 10, 30, or 100 mg/kg intraperitoneally for seven days. For NACE2i intravenous (i.v.) studies, male C57BL/6 J mice (6–8 weeks, 5 per group) were treated with daily bolus doses of either sodium chloride 0.9% vehicle or NACE2i at 3, 10, or 30 mg/kg intravenously for six days. For ACE2i studies, male C57BL/6 J mice (6 weeks, 5 per group) were treated with daily bolus doses of either saline vehicle or ACE2i at 10, 30, or 100 mg/kg intravenously or at 3, 10, and 30 mg/kg intranasally (i.n.) for six days. All treatments were administered on day 1, and all mice were observed and weighed daily prior to being euthanized for organ examination. All mice were purchased from the Animal Resources Centre (Canning Vale, Western Australia, Australia) and studies were carried out by Agilex Biolabs (St Lucia, Queensland, Australia). Animals were maintained in housing rooms under controlled environmental conditions: individually ventilated cages (IVCs) with a 12/12 light/dark cycle. The ambient temperature is set to 20–25 °C and relative humidity at 30-70% rH. The University of Queensland Animal Ethics Committee assessed and approved all studies (project code 2021/AE000659).
structure (smiles),measurement,setting,value
CCCCCCCCCCCCCC(=O)N[C@H](C(=O)NCC(=O)N[C@H](C(=O)N[C@@H](CCCNC(=N)N)C(=O)N[C@@H](CC(=O)O)C(=O)N[C@@H](CCCNC(=N)N)C(=O)N[C@@H](CCCCN)C(=O)N[C@@H](CCCCN)C(=O)N[C@@H](CCCCN)C(=O)N[C@@H](CC(N)=O)C(=O)N[C@@H](CCCCN)C(=O)N[C@@H](C)C(=O)N[C@@H](CCCNC(=N)N)C(=O)N[C@@H](CO)C(=O)O)[C@@H](C)CC)[C@@H](C)O [NACE2i] (Myristoyl-TGIRDRKKKNKARS-OH),lung infectious titers (TCID50),[1],significantly reduced
same,%CD3+,[2]; i.p. NACE2i,7.228% and 6.247% and 7.351% and 8.086%
same,%Perforin+,[2]; i.p. NACE2i,14.1151% and 9.254% and 20.5795% and 12.5121%
same,%CD3+,[2]; i.v. NACE2i,6.775% and 4.046% and 7.435% and 7.728% and 7.891%
same,%Perforin+,[2]; i.v. NACE2i,8.914% and 7.676% and 12.1345% and 7.891% and 7.955%
same,number of CD3+ cells,[2]; i.v. or i.p.,significantly increased
same,proportion of perforin-positive cells,[2]; i.v. or i.p.,significantly increased
same,Diarrhoea - Mild (number of animals),"[3]; IP route, 3 mg/kg, n = 3",0
same,No abnormalities (number of animals),"[3]; IP route, 3 mg/kg, n = 3",3
same,Palpebral Closure - Mild (number of animals),"[3]; IP route, 3 mg/kg, n = 3",0
same,Piloerection - Mild (number of animals),"[3]; IP route, 3 mg/kg, n = 3",0
same,Reduced Activity - Mild (number of animals),"[3]; IP route, 3 mg/kg, n = 3",0
same,Reduced Activity - Moderate (number of animals),"[3]; IP route, 3 mg/kg, n = 3",0
same,Right limb raised - Mild (number of animals),"[3]; IP route, 3 mg/kg, n = 3",0
same,Diarrhoea - Mild (number of animals),"[3]; IP route, 10 mg/kg, n = 3",0
same,No abnormalities (number of animals),"[3]; IP route, 10 mg/kg, n = 3",3
same,Palpebral Closure - Mild (number of animals),"[3]; IP route, 10 mg/kg, n = 3",0
same,Piloerection - Mild (number of animals),"[3]; IP route, 10 mg/kg, n = 3",0
same,Reduced Activity - Mild (number of animals),"[3]; IP route, 10 mg/kg, n = 3",0
same,Reduced Activity - Moderate (number of animals),"[3]; IP route, 10 mg/kg, n = 3",0
same,Right limb raised - Mild (number of animals),"[3]; IP route, 10 mg/kg, n = 3",0
same,Diarrhoea - Mild (number of animals),"[3]; IP route, 30 mg/kg, n = 3",0
same,No abnormalities (number of animals),"[3]; IP route, 30 mg/kg, n = 3",0
same,Palpebral Closure - Mild (number of animals),"[3]; IP route, 30 mg/kg, n = 3",1
same,Piloerection - Mild (number of animals),"[3]; IP route, 30 mg/kg, n = 3",0
same,Reduced Activity - Mild (number of animals),"[3]; IP route, 30 mg/kg, n = 3",3
same,Reduced Activity - Moderate (number of animals),"[3]; IP route, 30 mg/kg, n = 3",0
same,Right limb raised - Mild (number of animals),"[3]; IP route, 30 mg/kg, n = 3",3
same,Diarrhoea - Mild (number of animals),"[3]; IP route, 100 mg/kg, n = 3",1
same,No abnormalities (number of animals),"[3]; IP route, 100 mg/kg, n = 3",0
same,Palpebral Closure - Mild (number of animals),"[3]; IP route, 100 mg/kg, n = 3",0
same,Piloerection - Mild (number of animals),"[3]; IP route, 100 mg/kg, n = 3",2
same,Reduced Activity - Mild (number of animals),"[3]; IP route, 100 mg/kg, n = 3",2
same,Reduced Activity - Moderate (number of animals),"[3]; IP route, 100 mg/kg, n = 3",2
same,Right limb raised - Mild (number of animals),"[3]; IP route, 100 mg/kg, n = 3",0
same,Hunched Posture - Mild (number of animals),"[3]; IV route, 3 mg/kg, n = 5",0
same,No abnormalities (number of animals),"[3]; IV route, 3 mg/kg, n = 5",5
same,Palpebral Closure - Mild (number of animals),"[3]; IV route, 3 mg/kg, n = 5",0
same,Piloerection - Mild (number of animals),"[3]; IV route, 3 mg/kg, n = 5",0
same,Reduced Activity - Mild (number of animals),"[3]; IV route, 3 mg/kg, n = 5",0
same,Reduced Activity - Moderate (number of animals),"[3]; IV route, 3 mg/kg, n = 5",0
same,Tremors - Mild (number of animals),"[3]; IV route, 3 mg/kg, n = 5",0
same,Hunched Posture - Mild (number of animals),"[3]; IV route, 10 mg/kg, n = 5",0
same,No abnormalities (number of animals),"[3]; IV route, 10 mg/kg, n = 5",5
same,Palpebral Closure - Mild (number of animals),"[3]; IV route, 10 mg/kg, n = 5",0
same,Piloerection - Mild (number of animals),"[3]; IV route, 10 mg/kg, n = 5",0
same,Reduced Activity - Mild (number of animals),"[3]; IV route, 10 mg/kg, n = 5",0
same,Reduced Activity - Moderate (number of animals),"[3]; IV route, 10 mg/kg, n = 5",0
same,Tremors - Mild (number of animals),"[3]; IV route, 10 mg/kg, n = 5",0
same,Hunched Posture - Mild (number of animals),"[3]; IV route, 30 mg/kg, n = 5",1
same,No abnormalities (number of animals),"[3]; IV route, 30 mg/kg, n = 5",0
same,Palpebral Closure - Mild (number of animals),"[3]; IV route, 30 mg/kg, n = 5",1
same,Piloerection - Mild (number of animals),"[3]; IV route, 30 mg/kg, n = 5",0
same,Reduced Activity - Mild (number of animals),"[3]; IV route, 30 mg/kg, n = 5",4
same,Reduced Activity - Moderate (number of animals),"[3]; IV route, 30 mg/kg, n = 5",5
same,Tremors - Mild (number of animals),"[3]; IV route, 30 mg/kg, n = 5",5
same,"Mouse organ weight - i.v. treatment, Brain","[3]; S 1f, i.v. 3 mg/kg, mean, N 5",452.46
same,"Mouse organ weight - i.v. treatment, Heart","[3]; S 1f, i.v. 3 mg/kg, mean, N 5",113.88
same,"Mouse organ weight - i.v. treatment, Kidney","[3]; S 1f, i.v. 3 mg/kg, mean, N 5",265.49
same,"Mouse organ weight - i.v. treatment, Liver","[3]; S 1f, i.v. 3 mg/kg, mean, N 5",1316.2
same,"Mouse organ weight - i.v. treatment, Lungs","[3]; S 1f, i.v. 3 mg/kg, mean, N 5",151.37
same,"Mouse organ weight - i.v. treatment, Spleen","[3]; S 1f, i.v. 3 mg/kg, mean, N 5",70.61
same,"Mouse organ weight - i.v. treatment, Brain","[3]; S 1f, i.v. 10 mg/kg, mean, N 5",451.76
same,"Mouse organ weight - i.v. treatment, Heart","[3]; S 1f, i.v. 10 mg/kg, mean, N 5",110.14
